Results reported in US20250195659A1, “T CELL MANUFACTURING COMPOSITIONS AND METHODS” (BIONTECH US INC., priority 2021, published 2025).

Test system: antigen specific CD8^+ T cells
Test: IL-21 addition to NEO-STIM.RNA cultures
Type: cell-based, human
Source text: In order to improve the NEO-STIM protocol using RNA, IL-21 was explored as an addition to the protocol.

IL-21: cytokine added to the NEO-STIM RNA protocol
hit rate, neoantigen specific frequency and cell expansion (NEO-PTC-01.RNA, healthy donor, day 14 read-out): increased hit rate, neoantigen specific frequency and cell expansion | central memory phenotype in antigen specific CD8^+ T cells (NEO-STIM): increases central memory phenotype in antigen specific CD8^+ T cells | Tcm population (NEO-STIM.RNA): increases Tcm population in our NEO-STIM.RNA cultures | expansion of cultures (NEO-STIM.RNA): improves the expansion of NEO-STIM.RNA cultures | priming of specific T cells (NEO-STIM.RNA): improves the priming of specific T cells in NEO-STIM.RNA cultures
